This is an account of results in patent publication US20110020849A1, “BIOMARKERS FOR DIAGNOSTIC AND THERAPEUTIC METHODS” (Wayne State University, priority 2007, published 2011).

In one series the test system is rabbit RBCs. Briefly: Deformation-induced ATP release from rabbit RBCs pumped through microbore tubing (luciferin/luciferase chemiluminescence). The format is cell-based. Here is the method: (§1) Preparation of RBCs. Rabbits (New Zealand whites, males, 2.0-2.5 kg) were anesthetized with ketamine ([…], i.m.) and xylazine (1 mg/kg, i.m.) followed by pentobarbital sodium (15 mg/kg i.v.). A cannula was placed in the trachea and the animals were ventilated with room air. A catheter was placed into a carotid artery for administration of heparin and for phlebotomy. After heparin (500 units, i.v.), the animals were exsanguinated. Human blood was obtained by venipuncture without the use of a tourniquet (antecubital fossa) and collected into a heparinized syringe. Blood was centrifuged at 500×g at 4° C. for 10 min. The plasma and buffy coat were discarded. The RBCs were resuspended and washed three times in a physiological salt solution [PSS, containing in mM: 4.7 KCl, 2.0 CaCl2, 140.5 NaCl […], 21.0 tris(hydroxymethyl)aminomethane, 11.1 dextrose with 5% bovine serum albumin (final pH 7.4)]. Cells were prepared on the day of use and experiments were finished within 8 hours of removal from the animal or human subjects. All procedures were approved by the Animal Investigation Committee or the Human Investigation Committee at Wayne State University.
(§2) Measurement of ATP. Human C-peptide (American Peptide Co., Sunnyvale, Calif.), 0.25 mg (MW=3020 g/mol), was dissolved in […] of purified water (18.2 megaohm) to yield a concentration of 83 μM. […] The resulting chemluminescence reaction flowed through a final potion of fused-silica microbore tubing that was placed over a photomultiplier tube, where the emission was detected. The resultant current was measured as a potential by a data acquisition board operated by a program written with the LabView software package (National Instruments, Austin, Tex.).
Introduction. […] Upon deformation in the tubing, the RBCs release ATP that is measured using a well-established chemiluminescence assay for ATP. The concentrations of RBC-derived ATP are measured in the presence and absence of synthetic C-peptide.
C-Peptide-Induced Release of ATP. RBCs obtained from rabbits are pumped through microbore tubing having an inside diameter of 50 μm and the resultant ATP released by the cells upon deformation in the tubing is measured. […] Another aliquot from the same RBC sample is incubated in 1 nM C-peptide and the resultant ATP release measured every 2 h for a period up to 6 h. […] As shown, the ATP release (determined by a chemiluminescence assay) from those cells incubated in the c-peptide increased approximately 2.9 times over a period of […]. […] If cell lysis were occurring, the glybenclamide would have no affect on the measured ATP as it would be present in extracellular form whether or not glybenclamide was introduced to the RBCs. […]

The next series has as its system diabetic human RBCs. Briefly: ATP release from RBCs of patients with type II diabetes. The class given is cell-based. The following applies: n=7; for ATP release: diabetic human RBCs, ±SEM, FIG. 2. The procedure:
as §1
as §2, with “μM. Next, an appropriate volume of this C-peptide solution was added to 10 mL of a 7% solution of RBCs to create a solution containing the C-peptide at concentrations in the 1-5 nM range.” for “μM.”, “Tex.). […]” for “Tex.).”

The subject of series [1] is RBCs. Briefly: Loss of ATP-release bioactivity of C-peptide preparation in water (repeats of Experiments 1 and 2). The format is cell-based.
For series [2], the system named is RBCs. Briefly: Cell lysis control: RBC solutions measured under non-flow conditions with a luminometer. The class given is cell-based. The following applies: 200 μL RBC solution and 200 μL luciferin/luciferase solution. Here is the method: To ensure that the resulting increase in ATP release was due to C-peptide interacting with the RBCs and not cell lyses, the RBC solutions were measured under non-flow conditions using a luminometer with 200 μL of the RBC solution and 200 μL of the luciferin/luciferase solution. […] To ensure that lysis was not occurring in the tubing, a solution of 0.01 M glybenclamide was prepared by adding 49 mg of glybenclamide (Sigma) to 2 mL of a 0.1 M solution of sodium hydroxide. To this, 7.94 mL of a dextrose solution (1 g dextrose in 20 mL of purified water) was added. The mixture was heated carefully to 52° C. until all of the glybenclamide was dissolved. Once the solute was completely dissolved, 1 mL of this solution was added to 9 mL of PSS, resulting in a solution with a concentration 0.001 M. From this diluted solution, 2.5 mL were added to 2.5 mL of 7% hematocrit RBC solution, resulting in a 3.5% hematocrit solution of RBCs. This solution was allowed to incubate for 15 minutes. As a comparison, 2.5 mL of wash buffer without glybenclamide was added to 2.5 mL of 7% hematocrit RBCs. After 15 minutes, the RBC solutions were assayed.

The nature of series [3]: Electrospray ionization mass spectrometry of C-peptide and metal adducts in aqueous solution. The settings on record: ESI-MS.
Protocol: Mass Spectrometric Analysis of Metal-Peptide Binding.
Specifically, the mass spectrum shown in FIG. 3a is that of peptide prepared in water and analyzed within 0.5 h of preparation. In 3a, the [M+3H]^3+ peak is present as are other forms of the peptide with sodium atoms, potassium atoms, or a combination thereof.

For the molecule C-peptide, the “ability to induce ATP release from deformed RBCs” value with rabbit RBCs (C-peptide solution kept at 4° C. for >30 days) is given as “no longer has the ability to induce ATP release from deformed RBCs”. For the same molecule, the “increase in ATP release” value in the series with rabbit RBCs (rabbit RBCs, 1 nM C-peptide, over a period of 8 h, normalized values, FIG. 1) is given as “approximately 2.9 times”. Besides, in the series with rabbit RBCs (rabbit RBCs, 1 nM C-peptide, over the 6 h period), the “increase in ATP release versus control (buffer without C-peptide)” value is recorded as “nearly three times that of the RBCs incubated with a control”. Besides, the “restoration of ATP release levels” value in the series on diabetic human RBCs (RBCs of patients with type II diabetes, compared with healthy non-diabetic controls) is given as “restore these release levels to a value that is statistically equivalent to that of healthy, non-diabetic control patients”. The ATP release with diabetic human RBCs (after 6 hours of incubation with freshly prepared C-peptide preparation) was determined as 256.1 ± 38.7 nM; with diabetic human RBCs (at 0 hours, freshly prepared C-peptide preparation), 63.6 ± 12.6 nM. The “time to loss of bioactivity after preparation in water” value in the series with RBCs [1] is 24 to 36 h. The “luminescence signal under non-flow conditions (cell lysis check)” value in the series on RBCs [2] is on record as “No detectable signals were obtained”. Also, in series [3], the “time in solution without degradation or cleavage” value is given as > 30 days.
For the molecule `COc1ccc(Cl)cc1C(=O)NCCc1ccc(S(=O)(=O)NC(=O)NC2CCCCC2)cc1` [glybenclamide], the “effect on the C-peptide-induced increase in ATP release” value in the series with rabbit RBCs (RBCs incubated in glybenclamide) is given as “can be inhibited”.
